In ChEMBL document CHEMBL1201862, “PubChem BioAssay data set” (2004):
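Interpolation was linear, between the two tested concentrations surrounding the appropriate level; five concentrations were tested over 48 hours in 96-well plates. GI50 marks 50% less growth.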 Calls of active or inactive are those of the source. No stated cut-off is given here; in the data, active = GI50 up to about 1.1 µM and inactive = higher.

Columns and labels:
Assay in all cases: NCI anticancer screen, dose series, 48 h
ACHN = test system: ACHN
NCI-H522 = test system: NCI-H522
K562 = test system: K562
BT-549 = test system: BT-549
SN12C = test system: SN12C
SNB-75 = test system: SNB-75
SF-295 = test system: SF-295
SW-620 = test system: SW-620
OVCAR-5 = test system: OVCAR-5
CAKI-1 = test system: CAKI-1
SK-MEL-2 = test system: SK-MEL-2
HCT-15 = test system: HCT-15
NCI-H226 = test system: NCI-H226
U-251 = test system: U-251
SF-268 = test system: SF-268
SK-OV-3 = test system: SK-OV-3
HCT-116 = test system: HCT-116
NCI-H23 = test system: NCI-H23
SNB-19 = test system: SNB-19
RXF 393 = test system: RXF 393
MDA-MB-435 = test system: MDA-MB-435
UACC-62 = test system: UACC-62
HT-29 = test system: HT-29
CCRF-CEM = test system: CCRF-CEM
SR = test system: SR
KM12 = test system: KM12
SF-539 = test system: SF-539
MOLT-4 = test system: MOLT-4
HOP-92 = test system: HOP-92
PC-3 = test system: PC-3
OVCAR-8 = test system: OVCAR-8
786-0 = test system: 786-0
HOP-62 = test system: HOP-62
T47D = test system: T47D
MDA-MB-231 = test system: MDA-MB-231
OVCAR-3 = test system: OVCAR-3
UO-31 = test system: UO-31
Hs-578T = test system: Hs-578T
TK-10 = test system: TK-10
UACC-257 = test system: UACC-257
RPMI-8226 = test system: RPMI-8226
DU-145 = test system: DU-145
SK-MEL-28 = test system: SK-MEL-28
A549 = test system: A549
COLO 205 = test system: COLO 205
MCF7 = test system: MCF7
HCC 2998 = test system: HCC 2998
M14 = test system: M14
NCI/ADR-RES = test system: NCI/ADR-RES
OVCAR-4 = test system: OVCAR-4
A498 = test system: A498
IGROV-1 = test system: IGROV-1
EKVX = test system: EKVX
SK-MEL-5 = test system: SK-MEL-5
MDA-N = test system: MDA-N
LOX IMVI = test system: LOX IMVI
NCI-H460 = test system: NCI-H460
HL-60 = test system: HL-60
Malme-3M = test system: Malme-3M

Measured: GI50

NC1CC(=O)c2sccc21 (centres undefined)
inactive: ACHN > 100 µM | NCI-H522 > 100 µM | K562 > 100 µM | BT-549 > 100 µM | SN12C > 100 µM | SNB-75 > 100 µM | SF-295 > 100 µM | SW-620 > 100 µM | OVCAR-5 > 100 µM | CAKI-1 > 100 µM | SK-MEL-2 27.9 µM | NCI-H226 > 100 µM | U-251 > 100 µM | SF-268 > 100 µM | SK-OV-3 > 100 µM | HCT-116 > 100 µM | NCI-H23 > 100 µM | SNB-19 > 100 µM | RXF 393 29.6 µM | MDA-MB-435 > 100 µM | UACC-62 > 100 µM | HT-29 > 100 µM | CCRF-CEM > 100 µM | SR > 100 µM | KM12 > 100 µM | SF-539 > 100 µM | MOLT-4 > 100 µM | HOP-92 > 100 µM | PC-3 56.4 µM | OVCAR-8 > 100 µM | 786-0 > 100 µM | HOP-62 > 100 µM | T47D > 100 µM | MDA-MB-231 > 100 µM | OVCAR-3 > 100 µM | UO-31 > 100 µM | Hs-578T > 100 µM | TK-10 > 100 µM | UACC-257 > 100 µM | RPMI-8226 > 100 µM | DU-145 > 100 µM | SK-MEL-28 > 100 µM | A549 > 100 µM | COLO 205 > 100 µM | MCF7 > 100 µM | HCC 2998 > 100 µM | M14 > 100 µM | NCI/ADR-RES > 100 µM | OVCAR-4 > 100 µM | A498 > 100 µM | IGROV-1 > 100 µM | EKVX > 100 µM | SK-MEL-5 > 100 µM
> 100 µM: HCT-15

O=c1[nH]c2ccc(CC(=S)N3CCCCC3)cc2s1
inactive: ACHN > 100 µM | K562 > 100 µM | BT-549 > 100 µM | SF-295 > 100 µM | SW-620 > 100 µM | OVCAR-5 > 100 µM | CAKI-1 91.6 µM | SK-MEL-2 > 100 µM | SK-OV-3 > 100 µM | HCT-116 > 100 µM | NCI-H23 > 100 µM | SNB-19 > 100 µM | MDA-MB-435 > 100 µM | UACC-62 > 100 µM | SR 26.4 µM | KM12 > 100 µM | MDA-N > 100 µM | MOLT-4 > 100 µM | PC-3 > 100 µM | OVCAR-8 > 100 µM | 786-0 > 100 µM | HOP-62 71.9 µM | MDA-MB-231 > 100 µM | OVCAR-3 > 100 µM | TK-10 > 100 µM | UACC-257 > 100 µM | DU-145 > 100 µM | LOX IMVI > 100 µM | SK-MEL-28 > 100 µM | COLO 205 > 100 µM | MCF7 > 100 µM | M14 > 100 µM
> 100 µM: HCT-15
active: SNB-75 0.163 µM | EKVX 0.214 µM

Oc1ccc(C(O)(c2ccccc2)c2ccccc2)c2ccccc12
inactive: ACHN 1.77 µM | NCI-H522 2.42 µM | K562 3.13 µM | BT-549 3.85 µM | SN12C 2.22 µM | SNB-75 4.53 µM | SF-295 2.9 µM | SW-620 2.64 µM | OVCAR-5 2.3 µM | CAKI-1 1.82 µM | SK-MEL-2 2.4 µM | NCI-H226 2.52 µM | U-251 1.45 µM | SF-268 2.4 µM | SK-OV-3 3.25 µM | HCT-116 2.1 µM | NCI-H23 2.79 µM | SNB-19 5.15 µM | RXF 393 3.75 µM | UACC-62 1.22 µM | HT-29 2.77 µM | SR 2.5 µM | KM12 2.07 µM | SF-539 2 µM | NCI-H460 2.72 µM | MOLT-4 3.14 µM | PC-3 2.25 µM | OVCAR-8 2.42 µM | 786-0 2.02 µM | HL-60 2.93 µM | HOP-62 2.3 µM | T47D 2.77 µM | MDA-MB-231 1.79 µM | OVCAR-3 1.42 µM | UO-31 2.97 µM | Hs-578T 3.88 µM | TK-10 2.59 µM | UACC-257 6.85 µM | DU-145 2.13 µM | LOX IMVI 1.25 µM | SK-MEL-28 15 µM | A549 3.27 µM | COLO 205 3.44 µM | MCF7 4.15 µM | Malme-3M 10.2 µM | M14 2.34 µM | NCI/ADR-RES 2.1 µM | OVCAR-4 5.75 µM | IGROV-1 1.87 µM | EKVX 10.4 µM | SK-MEL-5 2.67 µM
1.22 µM: HCT-15
active: MDA-MB-435 1.07 µM | CCRF-CEM 0.019 µM | HOP-92 < 0.01 µM
